In DBAASP:
≈ marks a conversion by molar mass, not a printed value. Where “and” joins values, the source holds several entries; their conditions need not be identical. Equal values may be shown once.

Key:
Assay in all cases: ≥ marks a high value that may be exact or a test limit, other limits are often not marked, values filed in µg/mL are converted to µM
[1] = system: Salmonella typhimurium KCTC 1926
[2] = system: Pseudomonas aeruginosa KCTC 1637
[3] = system: Staphylococcus epidermidis KCTC 1917
[4] = system: Escherichia coli KCTC 1682
[5] = system: Bacillus subtilis KCTC 3068
[6] = system: Staphylococcus aureus KCTC 1621
[7] = system: Staphylococcus aureus NCTC 8325
[8] = system: Escherichia coli ATCC 25922
[9] = system: Pseudomonas aeruginosa PAO1
[10] = system: Staphylococcus aureus USA 300
[11] = system: Klebsiella pneumoniae ATCC 13883
[12] = system: Pseudomonas aeruginosa CMCCB 10104
[13] = system: Staphylococcus aureus ATCC 25923
[14] = system: Candida albicans ATCC 2002
[15] = system: Acinetobacter baumannii ATCC 19606
Pseudomonas aeruginosa = system: Pseudomonas aeruginosa
Acinetobacter baumannii = system: Acinetobacter baumannii
Klebsiella pneumoniae = system: Klebsiella pneumoniae
[16] = system: Pseudomonas aeruginosa ATCC 27853
Escherichia coli = system: Escherichia coli
Staphylococcus aureus = system: Staphylococcus aureus
[17] = system: Salmonella enterica subsp. enterica serovar Typhimurium ATCC 14028

`CC(C)C[C@H](NC(=O)[C@H](Cc1ccccc1)NC(=O)[C@H](CCCN=C(N)N)NC(=O)[C@H](CCCCN)NC(=O)[C@H](Cc1c[nH]c2ccccc12)NC(=O)[C@H](CCCN=C(N)N)NC(=O)[C@H](CCC(N)=O)NC(=O)[C@@H](NC(=O)[C@H](Cc1c[nH]c2ccccc12)NC(=O)[C@H](CCCN=C(N)N)NC(=O)[C@H](CCCCN)NC(=O)[C@@H](N)Cc1ccccc1)C(C)C)C(=O)N[C@@H](CCCN=C(N)N)C(N)=O` [FKRWVQRWKRFLR] was tested, and the MIC [1] was 2 µM (≈ 3.81 µg/mL), the MIC [2] was 16 µM (≈ 30.5 µg/mL) and the MIC [3] was 4 µM (≈ 7.62 µg/mL). It also gave an MIC [4] of 4 µM (≈ 7.62 µg/mL), an MIC [5] of 2 µM (≈ 3.81 µg/mL) and an MIC [6] of 2 µM (≈ 3.81 µg/mL).

Work on `CSCC[C@H](NC(=O)[C@H](CC(C)C)NC(=O)[C@H](CO)NC(=O)CNC(=O)[C@H](C)NC(=O)[C@@H](NC(=O)[C@H](CC(N)=O)NC(=O)[C@H](CCCCN)NC(=O)[C@H](CC(C)C)NC(=O)[C@@H](NC(=O)[C@H](CC(N)=O)NC(=O)[C@H](CCCCN)NC(=O)CNC(=O)[C@@H](NC(=O)[C@H](CCCCN)NC(=O)[C@H](CCCCN)NC(=O)[C@H](Cc1ccccc1)NC(=O)[C@@H](NC(=O)[C@H](CC(N)=O)NC(=O)[C@H](Cc1ccccc1)NC(=O)[C@H](CC(C)C)NC(=O)CN)C(C)C)C(C)C)C(C)C)C(C)C)C(=O)N[C@@H](CC(=O)O)C(=O)N[C@@H](CC(N)=O)C(=O)N[C@@H](CC(C)C)C(=O)N[C@@H](CCCCN)C(=O)N[C@H]1CSSC[C@@H](C(=O)O)NC(=O)[C@H](CCC(=O)O)NC(=O)CNC(=O)[C@H](CO)NC(=O)[C@H](C(C)C)NC(=O)[C@H](CCCCN)NC1=O` [GLFNVFKKVGKNVLKNVAGSLMDNLKCKVSGEC] yielded an MIC [7] of at least 50 µM and an MIC [8] of 3 µM (≈ 10.6 µg/mL).

For `CC(C)C[C@H](NC(=O)[C@H](CC(C)C)NC(=O)[C@H](CCCCN)NC(=O)CNC(=O)[C@H](CC(C)C)NC(=O)[C@H](C)NC(=O)[C@H](CO)NC(=O)[C@H](CC(C)C)NC(=O)[C@H](CC(C)C)NC(=O)[C@H](CO)NC(=O)[C@H](CC(C)C)NC(=O)[C@H](CC(C)C)NC(=O)CN)C(N)=O` [GLLSLLSALGKLL], the MIC [9] was over 25 µM, the MIC [10] was 1.56 µM (≈ 2.02 µg/mL) and the MIC [11] was 25 µM (≈ 32.4 µg/mL). It also gave an MIC [8] of over 25 µM.

In the case of `CC[C@H](C)[C@H](NC(=O)[C@H](CC(C)C)NC(=O)[C@H](CC(C)C)NC(=O)[C@H](CC(=O)O)NC(=O)[C@H](CCCCN)NC(=O)[C@@H](NC(=O)[C@@H](NC(=O)CNC(=O)[C@H](CC(C)C)NC(=O)[C@@H](NC(=O)CN)C(C)C)[C@@H](C)O)C(C)C)C(=O)NCC(=O)N[C@@H](C)C(=O)NCC(=O)N[C@@H](CCCCN)C(=O)N[C@@H](CO)C(=O)N[C@@H](C)C(=O)N[C@@H](C)C(=O)N[C@@H](CCC(N)=O)C(=O)N[C@@H](CO)C(=O)N[C@H](C(=O)N[C@@H](CC(C)C)C(=O)N[C@@H](CCCCN)C(=O)N[C@H](C(=O)N[C@@H](CC(C)C)C(=O)N[C@@H](CO)C(=O)N[C@H]1CSSC[C@@H](C(=O)O)NC(=O)[C@H](CC(=O)O)NC(=O)[C@H](CC(N)=O)NC(=O)[C@H](CO)NC(=O)[C@H]([C@@H](C)CC)NC(=O)[C@H](CCCCN)NC1=O)[C@@H](C)O)[C@@H](C)O` [GVLGTVKDLLIGAGKSAAQSTLKTLSCKISNDC], the MIC [12] is reported as 7.05 µM (≈ 23.2 µg/mL), the MIC [13] is reported as 3.52 µM (≈ 11.6 µg/mL) and the MIC [14] is reported as 1.76 µM (≈ 5.8 µg/mL). For the same molecule, the MIC [8] was 1.76 µM (≈ 5.8 µg/mL).

In the case of `CC[C@H](C)[C@H](N)C(=O)N[C@@H](CC(C)C)C(=O)N1CCC[C@H]1C(=O)N[C@@H](Cc1ccccc1)C(=O)N[C@H](C(=O)N[C@@H](C)C(=O)NCC(=O)N[C@H](C(=O)N[C@@H](C)C(=O)N[C@@H](C)C(=O)N[C@@H](CCC(=O)O)C(=O)N[C@@H](CCSC)C(=O)N[C@@H](CCSC)C(=O)N[C@@H](CCC(N)=O)C(=O)N[C@@H](Cc1cnc[nH]1)C(=O)N[C@H](C(=O)N[C@@H](Cc1ccc(O)cc1)C(=O)N[C@H]1CSSC[C@@H](C(=O)O)NC(=O)[C@H](CCCCN)NC(=O)[C@H](CCCCN)NC(=O)[C@H](CO)NC(=O)[C@H](C)NC(=O)[C@H](C)NC1=O)C(C)C)C(C)C)C(C)C` [ILPFVAGVAAEMMQHVYCAASKKC], the MIC [12] is reported as 4.52 µM (≈ 11.6 µg/mL), the MIC [13] is reported as 4.52 µM (≈ 11.6 µg/mL) and the MIC [14] is reported as 2.26 µM (≈ 5.8 µg/mL). It also gave an MIC [8] of 2.26 µM (≈ 5.8 µg/mL).

`CC[C@H](C)[C@H](NC(=O)[C@H](CCCCN)NC(=O)[C@H](CC(C)C)NC(=O)[C@H](C)NC(=O)[C@H](CCCCN)NC(=O)[C@H](CC(C)C)NC(=O)[C@H](C)NC(=O)CNC(=O)[C@H](CCCCN)NC(=O)[C@H](C)NC(=O)[C@@H](NC(=O)[C@@H](N)CCCCN)[C@@H](C)CC)C(=O)N[C@@H](C)C(=O)N[C@@H](CCCCN)C(=O)N[C@H](C(=O)N[C@@H](C)C(=O)N[C@@H](CC(C)C)C(=O)N[C@@H](CCCCN)C(=O)N[C@@H](C)C(=O)N[C@@H](CC(C)C)C(N)=O)C(C)C` [KIAKGALKALKIAKVALKAL] showed an MIC [15] of 0.707 µM (≈ 1.45 µg/mL), an MIC (Pseudomonas aeruginosa) of 2.83 µM (≈ 5.79 µg/mL) and an MIC [13] of 11.3 µM (≈ 23.2 µg/mL). For the same molecule, the MIC (Acinetobacter baumannii) was 0.5 µM (≈ 1.02 µg/mL), the MIC (Klebsiella pneumoniae) was 4 µM (≈ 8.19 µg/mL) and the MIC [16] was 2 µM (≈ 4.1 µg/mL). The MIC (Escherichia coli) was 4 µM (≈ 8.19 µg/mL), the MIC (Staphylococcus aureus) was 5.66 µM (≈ 11.6 µg/mL) and the MIC [11] was 2 µM (≈ 4.1 µg/mL). The MIC [8] was 0.354 µM (≈ 0.724 µg/mL).

`CC(C)C[C@H](NC(=O)[C@H](CC(C)C)NC(=O)[C@H](CCCCN)NC(=O)[C@H](CCCCN)NC(=O)[C@H](Cc1c[nH]c2ccccc12)NC(=O)[C@H](CC(C)C)NC(=O)[C@H](CCCCN)NC(=O)[C@H](CCCCN)NC(=O)[C@H](CC(C)C)NC(=O)[C@@H](N)CCCCN)C(=O)N[C@@H](CCCCN)C(N)=O` [KLKKLWKKLLK] was tested, and the MIC [5] was 8.77 µM and 17.5 µM.

In the case of `CC(C)C[C@H](NC(=O)[C@H](CCCN=C(N)N)NC(=O)[C@H](CCCN=C(N)N)NC(=O)[C@H](C)NC(=O)[C@H](Cc1c[nH]c2ccccc12)NC(=O)CNC(=O)[C@H](CCCN=C(N)N)NC(=O)[C@@H](N)CCCN=C(N)N)C(=O)N[C@@H](C)C(=O)N[C@@H](C)C(=O)N[C@@H](C)C(=O)N[C@@H](Cc1ccc(O)cc1)C(=O)NCC(=O)N[C@@H](CCCN=C(N)N)C(=O)N[C@@H](CCCN=C(N)N)C(N)=O` [RRGWARRLAAAYGRR], the MIC [15] is reported as 25.4 µM and 30 µM, the MIC [13] is reported as over 30 µM and the MIC [17] is reported as over 30 µM. The MIC [11] was 30 µM (≈ 54.5 µg/mL) and the MIC [8] was 18.1 µM and 30 µM.

`CC[C@H](C)[C@H](NC(=O)[C@H](Cc1ccccc1)NC(=O)[C@H](CCCN=C(N)N)NC(=O)[C@@H](NC(=O)[C@@H]1CCCN1C(=O)[C@H](CO)NC(=O)[C@H](CC(C)C)NC(=O)[C@H](C)NC(=O)[C@H](C)NC(=O)[C@H](CCCCN)NC(=O)[C@H](CC(N)=O)NC(=O)[C@H](CCSC)NC(=O)CNC(=O)[C@@H](NC(=O)[C@H](CCC(N)=O)NC(=O)[C@H](CC(=O)O)NC(=O)[C@H](C)NC(=O)[C@@H](N)CO)[C@@H](C)O)[C@@H](C)CC)C(=O)N[C@@H](CO)C(=O)N[C@@H](CCCCN)C(=O)N[C@@H](CO)C(=O)N[C@H](C(=O)O)C(C)C` [SADQTGMNKAALSPIRFISKSV] was tested, and the MIC [12] was at least 86.1 µM, the MIC [13] was over 86.1 µM and the MIC [14] was at least 86.1 µM. It also gave an MIC [8] of over 86.1 µM.

With `CC[C@H](C)[C@H](NC(=O)[C@H](CC(C)C)NC(=O)[C@H](CC(C)C)NC(=O)[C@H](CC(=O)O)NC(=O)[C@H](CCCCN)NC(=O)[C@@H](NC(=O)[C@@H](NC(=O)CNC(=O)[C@H](CC(C)C)NC(=O)[C@@H](NC(=O)[C@@H](N)CO)C(C)C)[C@@H](C)O)C(C)C)C(=O)NCC(=O)N[C@@H](C)C(=O)NCC(=O)N[C@@H](CCCCN)C(=O)N[C@@H](CO)C(=O)N[C@@H](C)C(=O)N[C@@H](C)C(=O)N[C@@H](CCC(N)=O)C(=O)N[C@@H](CO)C(=O)N[C@H](C(=O)N[C@@H](CC(C)C)C(=O)N[C@H](C(=O)N[C@@H](C)C(=O)N[C@@H](CC(N)=O)C(=O)N[C@@H](CO)C(=O)N[C@H]1CSSC[C@@H](C(=O)O)NC(=O)[C@H](CO)NC(=O)[C@H](CC(N)=O)NC(=O)[C@H](CO)NC(=O)[C@H](CC(C)C)NC(=O)[C@H](CCCCN)NC1=O)[C@@H](C)O)C(C)C` [SVLGTVKDLLIGAGKSAAQSVLTANSCKLSNSC] the MIC [12] was 3.65 µM (≈ 11.8 µg/mL), the MIC [13] was 1.82 µM (≈ 5.9 µg/mL) and the MIC [14] was 3.65 µM (≈ 11.8 µg/mL). For the same molecule, the MIC [8] was 3.65 µM (≈ 11.8 µg/mL).

`CC[C@H](C)[C@H](NC(=O)[C@H](CCCCN)NC(=O)[C@H](CCCCN)NC(=O)CNC(=O)[C@H](CCSC)NC(=O)[C@H](CO)NC(=O)[C@@H](NC(=O)[C@@H](NC(=O)[C@H](CC(N)=O)NC(=O)CNC(=O)[C@H](CC(C)C)NC(=O)[C@H](Cc1ccccc1)NC(=O)[C@@H](N)C(C)C)[C@@H](C)CC)C(C)C)C(=O)O` [VFLGNIVSMGKKI] gave an MIC [12] of at least 142 µM, an MIC [13] of over 142 µM and an MIC [14] of at least 142 µM. For the same molecule, the MIC [8] was over 142 µM.
